Test results: patent US11215608B2, “Methods of determining cellular chemosensitivity” (Dana-Farber Cancer Institute, Inc., priority 2006, dated 2022)

Legend:
GST-BCL-2 = target: T1, GST-BCL-2 (Homo sapiens, UniProt P10415); experiment: BIM BH3 displacement by fluorescence polarization; type: binding; settings: 25 nM fluorescein-linked BIM BH3, 0.5 uM GST-BCL-2
T1 construct: In each case, the C-terminus transmembrane domain was truncated to maintain solubility in aqueous solution; made in house; host or cells: bacteria
Description: (§1) Binding assays were performed using fluorescence polarization as previously described (Letai et al., 2002). A minimum of three independent experiments were used to determine each dissociation constant.
(§2) As one test of this hypothesis, the ability of sensitizer peptides to displace tBID from antiapoptotic protein Bcl-w was examined utilizing a GST-pulldown assay. Proteins bound to glutathioneagarose beads were eluted with glutathione and analyzed by Western blot. In FIG. 3A, tBID is displaced from BC1-w by sensitizer BH3 peptides in a pattern that replicates the pattern in FIG. 1D. […] These experiments support the ability of sensitizer BH3 peptides to displace activators from the antiapoptotic binding cleft.

BAX = BAX oligomerization / activation in mitochondria of IL-3 starved FL5.12-BCL-2 cells; type: biochemical, murine; settings: peptides 30 uM, ABT-737 10 uM, 35 minutes
Description: Mitochondria were isolated from wt FL5.12 cells and FL5.12-BCL-2 cells in the presence of IL-3, and from FL5.12-BCL-2 cells following 24 hours of IL-3 deprivation. […] Mitochondrial pellets were subjected to chemical crosslinking as previously described (Letai et al., 2002).
This model predicts that BCL-2 acts upstream of BAX activation by intercepting activator BH3 molecules. To test this prediction, in FIG. 6E, immunoprecipitation was performed with an antibody that recognizes only the activated form of BAX which exposes an N-terminus epitope (Desagher ct al., 1999; Hsu and You le, 1997). wt or BCL-2 expressing FL5.12 cells were exposed to IL-3 withdrawal as indicated.

SU-DHL6 = experiment: BH3 profiling, cytochrome c release from lymphoma mitochondria; type: biochemical; settings: SU-DHL 6
Description: BH3 profiling allows for the prediction of response of cancer cells to anti-cancer therapeutics. For the purposes of this application, therapeutics can be divided into those that target anti-apoptotic BCL-2 proteins, and conventional agents. As a model test system, four lymphoma cell lines SU-DHL4, SU-DHL6, SU-DHL8, and SU-DHL 10 were employed. To perform BH3 profiling, the ability of a panel of sensitizer peptides to induce mitochondrial outer membrane permeabilization (MOMP) in mitochondria isolated from the lymphoma cells were tested. […] MOMP was measured by quantifying cytochrome c release by ELISA.
SU-DHL4 and SU-DHL6 a “primed” phenotype, based on the sensitivity to sensitizer BH3 peptides. […] SU-DHL-10 responded poorly to both sensitizer and activator peptides, indicating the loss of the effector arm.

mouse liver mitochondria = experiment: Cytochrome c release from mouse liver mitochondria; type: biochemical; settings: no tBID, also at 10-fold higher concentrations
Description: (§3) Mitochondria were purified from liver and FL5.12cells as previously described (Letai et al., 2002). Mitochondria were purified from leukemia cells and 2B4 cells as previously described for FL5.12 cells. Mitochondria were incubated with treatments for 45 (mouse liver mitochondria) or 35 minutes (FL5.12, 2B4, and leukemic mitochondria). Release of cytochrome c was determined by a comparison of cytochrome c in the pellet and supernatant following treatment, quantitated by ELISA (R&D systems). When results of multiple experiments were averaged, results from solvent-only (DMSO) treatments values were subtracted from each, so that 0 release reflects that observed in solvent-only treatments.
To test if selective binding corresponded to ability of individual BH3 domains to selectively antagonize antiapoptotic function, a purified mitochondrial system was constructed in which the critical apoptosis decision making molecular machinery was reconstituted. […] The multidomain proapoptotic function was provided by the BAK which resides in mouse liver Mitochondria; mouse liver mitochondria contain no detectable BAX protein (Letai et al., 2002). The dominant antiapoptotic function was provided by one of the five different recombinant antiapoptotic proteins used in the binding assays. BH3 peptides provided the sensitizer function.
Furthermore, when the panel of sensitizer BH3 peptides was tested in the presence of the antiapoptotic protein BCL-XL, there was still no cytochrome c release, formally ruling out the possibility that the BH3 peptides were somehow directly converting antiapoptotic proteins to a proapoptotic function (FIG. 2). To induce MOMP and cytochrome c release, there appears to be an absolute requirement for an activator function, here provided by the tBID protein.

CLL mitochondria = experiment: Cytochrome c release from CLL mitochondria; type: biochemical, human; settings: peptides or compounds 100 μM
Description: Alternatively, mitochondria were purified from freshly isolated CLL cells and cell lines by mechanical disruption followed by differential centrifugation, as previously described (Letai et al., 2002). Mitochondrial suspensions were made at 0.5 mg protein/ml, except for the case of ABT-737 and negative control enantiomer treatments, where 0.1 mg/ml was used. Release of cytochrome c was determined by a comparison of cytochrome c in the pellet and supernatant quantitated by ELISA (R&D systems).
CLL mitochondria were incubated with BH3 peptides as well as ABT-737 and negative control enantiomer (FIG. 14). […] This pattern is diagnostic of mitochondrial BCL-2 dependence. […] Since the BH3 peptides in the sensitizer panel lack the ability to directly activate BAX and BAK, these experiments also implicated the presence of an activator molecule constitutively sequestered by BCL-2 in CLL.

leukemic mitochondria = experiment: Cytochrome c release from BCL-2 dependent leukemia mitochondria; type: biochemical, mouse
Description: as §3
Leukemia prone mice were generated as previously described (Letai, 2004). Mouse experimental protocols conform to the relevant regulatory standards and were approved by the Dana-Farber Cancer Institute Animal Care and Use Committee.
Previous results have described a mouse acute lymphocytic leukemia model in which c-myc is constitutively expressed and human BCL-2 is repressibly expressed. In this model, when BCL-2 transgene expression is eliminated by administration of doxycycline, the leukemic cells undergo apoptosis, resulting in rapid resolution of the leukemia (Letai, 2004). This provides an ideal in vivo model of a BCL-2 dependent cancer. It was hypothesized that dependence on BCL-2 was due to a similar mechanism to that of the IL-3 deprived FL5.12-BCL-2 cells—that is, a death signal was being initiated and carried by an activator BH3 molecule, but BCL-2 was binding it and preventing its interaction with multidomain proapoptotic proteins.
Mitochondria were isolated from leukemia cells and exposed to sensitizer BH3 peptides. Subsequently, cytochrome c release was measured. As an internal control, mitochondria were isolated from liver from the leukemic mice in parallel (FIG. 8A).

[1] = system: FLAG-MCL-1-transfected 2B4 cells; experiment: BH3 peptides electroporated into dexamethasone-treated FLAG-MCL-1 2B4 cells; type: cell-based, murine; settings: peptide transfected by electroporation
Description: Percent killing was ascertained by Annexin-V staining. […] N=3 and the error bars represent the standard deviation.

GST-MCL-1 = target: T2, GST-MCL-1 (Homo sapiens, UniProt Q07820); experiment: BIM BH3 displacement by fluorescence polarization; type: binding; settings: 25 nM fluorescein-linked BIM BH3, 0.1 uM GST-MCL-1
T2 construct: In each case, the C-terminus transmembrane domain was truncated to maintain solubility in aqueous solution; made in house; host or cells: bacteria (construct a gift of Tilman Oltersdorf)
Description: as §1, §2

T1 sequence (P10415 1-218 limits assumed): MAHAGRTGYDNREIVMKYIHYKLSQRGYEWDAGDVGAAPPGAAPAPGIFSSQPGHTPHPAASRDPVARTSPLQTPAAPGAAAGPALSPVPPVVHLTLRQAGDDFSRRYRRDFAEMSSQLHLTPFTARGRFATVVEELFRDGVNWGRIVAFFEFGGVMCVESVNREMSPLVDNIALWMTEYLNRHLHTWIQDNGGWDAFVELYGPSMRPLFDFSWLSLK
T2 sequence (Q07820 1-327): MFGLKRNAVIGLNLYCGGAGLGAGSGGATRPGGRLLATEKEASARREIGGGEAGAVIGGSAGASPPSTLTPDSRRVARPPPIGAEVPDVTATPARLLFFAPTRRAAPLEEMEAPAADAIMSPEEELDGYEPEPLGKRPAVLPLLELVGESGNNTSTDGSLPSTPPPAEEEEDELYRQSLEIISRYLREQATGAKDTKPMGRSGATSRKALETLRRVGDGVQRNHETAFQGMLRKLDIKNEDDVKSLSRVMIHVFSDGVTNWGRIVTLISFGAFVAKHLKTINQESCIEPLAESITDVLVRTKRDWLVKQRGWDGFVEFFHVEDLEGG

| Compound | displacement of BIM BH3 from BCL-2 (GST-BCL-2) | BAX oligomerization (BAX) | mitochondrial sensitivity to BH3 peptide (SU-DHL6) | cytochrome c release by peptide alone (mouse liver mitochondria) | cytochrome c release (CLL mitochondria) | cytochrome c release (leukemic mitochondria) | percent killing by Annexin-V staining [1] | displacement of BIM BH3 from MCL-1 (GST-MCL-1) |
| --- | --- | --- | --- | --- | --- | --- | --- | --- |
| CSCC[C@H](NC(=O)[C@H](CCCNC(=N)N)NC(=O)[C@H](CCCNC(=N)N)NC(=O)[C@H](CC(C)C)NC(=O)[C@H](CCC(=O)O)NC(=O)[C@H](CCCNC(=N)N)NC(=O)CNC(=O)[C@H](Cc1ccc(O)cc1)NC(=O)[C@H](CCCNC(=N)N)NC(=O)[C@H](CCC(N)=O)NC(=O)[C@H](C)NC(=O)[C@H](C)NC(=O)[C@H](Cc1c[nH]c2ccccc12)NC(=O)[C@H](CC(C)C)NC(=O)CCCCCNC(=S)Nc1ccc2c(c1)C(=O)OC21c2ccc(O)cc2Oc2cc(O)ccc21)C(=O)N[C@@H](CO)C(=O)N[C@@H](CC(=O)O)C(=O)N[C@@H](CCC(=O)O)C(=O)N[C@@H](Cc1ccccc1)C(=O)N[C@@H](CCC(=O)O)C(=O)NCC(=O)N[C@@H](CO)C(=O)N[C@@H](Cc1ccccc1)C(=O)N[C@@H](CCCCN)C(=O)NCC(=O)N[C@@H](CC(C)C)C(=O)O [BAD] | efficiently displaces BIM BH3 from BCL-2 | results in BAX oligomerization | weaker, but definite, response | none of the sensitizer BH3 peptides by themselves can induce cytochrome c release significantly above background | induce cytochrome c release | capable of inducing near total cytochrome c release | – | – |
| BH3 domain peptide of murine NOXA, AELPPEFAAQLRKIGDKVYC (SEQ ID NO: 6) [NOXA A] | – | – | weaker, but definite, response | none of the sensitizer BH3 peptides by themselves can induce cytochrome c release significantly above background | do not | – | significantly greater than that with BAD | efficiently displaces BIM from MCL-1 |
